ChEMBL document CHEMBL3886227, “Multiheteroaryl compounds as inhibitors of H-PGDS and their use for treating prostaglandin D2 mediated diseases” (2015)

Molecular target: Hematopoietic prostaglandin D synthase (Homo sapiens, UniProt O60760)
Experiment: Fluorescence Polarization Binding Assay (FPBA): This assay essentially is available from Cayman Chemical Company as Catalog item #600007. The test data reported for the aforementioned Examples (H-PGDS FPBA IC50) were generated using a 96-well, instead of the 384-well, format.Detection analyte and H-PGDS-MBP fusion enzyme were incubated in the presence of reduced glutathione (5 mM) for 60-90 minutes at room temperature and FP was measured using a TECAN SAFIRE 2 plate reader equipped with absorbance, fluorescence, fluorescence polarization and FRET capabilities. Assays were performed in 96-well microtiter plates in 100 µL of total sample volume. Excitation and emission wavelengths appropriate for the employed detection analyte were used.

Hematopoietic prostaglandin D synthase, sequence (O60760 whole entry, the tested form may be a part): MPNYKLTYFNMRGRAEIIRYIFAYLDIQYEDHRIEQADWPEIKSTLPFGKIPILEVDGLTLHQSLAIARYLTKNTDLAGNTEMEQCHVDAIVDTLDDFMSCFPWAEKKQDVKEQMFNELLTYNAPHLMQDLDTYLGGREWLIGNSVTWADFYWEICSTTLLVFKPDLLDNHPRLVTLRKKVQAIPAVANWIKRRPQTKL

Question: Which IC50 does the source give for `COC(=O)c1cc(-c2cnc(Oc3ccccc3)nc2)[nH]n1` here?
Answer: Its IC50 is 2000 nM.
